Structures can show the parent of a compound that is named as a salt.
Key:
Assay type in all cases: physicochemical
[1] = Light stability, Xenon light approx. 1200 kLuxh; conditions: for Decomposition products (%): Bulk (HPLC); for Change in XRPD: Bulk (XRPD)
Method: (§1) Crystalline forms A of the hydrochloride and tartrate salts of Compound I were prepared according to the methodology described in Examples 1 and 4. Stability against temperature and light were then measured as described below.
Light stability was tested by measuring decomposition and colour change following exposure to the sample to 1200 kiloLuxhours from a Xenon light.

[2] = Hygroscopy by exposure to an atmosphere of 95% RH
Method: Crystalline forms A of the hydrochloride and tartrate salts of Compound I were prepared according to the methodology described in Examples 1 and 4.
The samples were tested for hygroscopy by exposure to an atmosphere of 95% RH.

[3] = Temperature stability, solid state, 1 week 80° C., tight container; conditions: for resistance to decomposition at elevated temperatures: summary of Table 5
Method: as §1
(§2) Temperature stability was tested by measuring decomposition and colour change caused by placing the samples in an airtight container for 1 week at 80° C. (in bulk form and as a 1% component in two mixtures) and in an identical container for 1 week at 80° C. and at a relative humidity of 75%. Where a change in XRPD was observed, the temperature of the phase transition was measured using differential scanning […] (DSC).

[4] = Temperature stability, solid state, 1 week 80° C./75% relative humidity; conditions: for Decomposition products (%) / Discoloration / Change in XRPD: 1 week 80° C./75% relative humidity; for Change in XRPD: Bulk (XRPD)
Method: as §1, §2

[5] = 1 week 80° C., tight container, 1% in mixture of Lactose 200 mesh (78.5%), corn starch (20%), aerosil 200 (0.5%), magnesium stearate (1%)
[6] = 1 week 80° C., tight container, 1% in mixture of Mannitol 60 (50%), avicel PH 101 (43%), crospovidone (5%), aerosil (1%), magnesium stearate (1%)
[7] = Solid state, 1 week 80° C., tight container, Bulk (HPLC)
[8] = Solid state, 1 week 80° C., tight container, Bulk (XRPD, DSC)
[9] = 1% in mixture of Lactose 200 mesh (78.5%), corn starch (20%), aerosil 200 (0.5%), magnesium stearate (1%)
[10] = 1% in mixture of Mannitol 60 (50%), avicel PH 101 (43%), crospovidone (5%), aerosil (1%), magnesium stearate (1%)

CCc1cc(/C(C)=N/OCc2ccc(C3CCCCC3)c(C(F)(F)F)c2)ccc1CN1CC(C(=O)O)C1 [Form A of hydrochloride salt, 1-(4-{1-[(E)-4-Cyclohexyl-3-trifluoromethyl-benzyloxyimino]-ethyl}-2-ethyl-benzyl)-azetidine-3-carboxylic acid]
Decomposition products (%) [1]: 1.1%
Change in XRPD [1]: No change
hygroscopy [2]: low hygroscopy
moisture uptake [2]: 0.61%
Decomposition products (%) [3, 5]: 94.8%
Discoloration [3, 5]: Strong
Decomposition products (%) [3, 6]: 92.7%
Discoloration [3, 6]: Strong
Decomposition products (%) [3, 7]: 11.5%
Change in XRPD [3, 8]: No change
Decomposition products (%) ([3]; Unstressed (1 week)): 1.1%
resistance to decomposition at elevated temperatures [3]: good resistance to decomposition
Decomposition products (%) [4, 9]: 95.2%
Discoloration [4, 9]: Strong
Decomposition products (%) [4, 10]: 95.8%
Discoloration [4, 10]: Strong
Discoloration ([4]; Solid state, Bulk): Strong
Decomposition products (%) ([4]; Solid state, Bulk (HPLC)): 91.5%
Change in XRPD ([4]; Solid state): Melted glass

CCc1cc(/C(C)=N/OCc2ccc(C3CCCCC3)c(C(F)(F)F)c2)ccc1CN1CC(C(=O)O)C1 [Form A of tartrate salt, 1-(4-{1-[(E)-4-Cyclohexyl-3-trifluoromethyl-benzyloxyimino]-ethyl}-2-ethyl-benzyl)-azetidine-3-carboxylic acid]
Decomposition products (%) [1]: 0.8%
Change in XRPD [1]: No change
hygroscopy [2]: slightly hygroscopic
moisture uptake [2]: 2.49%
Decomposition products (%) [3, 5]: 23.8%
Decomposition products (%) [3, 6]: 37.0%
Decomposition products (%) [3, 7]: 8.8%
Change in XRPD [3, 8]: Changed
temperature of the phase transition (DSC) ([3]; Solid state, 1 week 80° C., tight container, Bulk (XRPD, DSC), measured where XRPD changed): 136.3 °C
Decomposition products (%) ([3]; Unstressed (1 week)): 0.8%
resistance to decomposition at elevated temperatures [3]: good resistance to decomposition
Decomposition products (%) [4, 9]: 70.9%
Discoloration [4, 9]: Strong
Decomposition products (%) [4, 10]: 93.2%
Discoloration [4, 10]: Medium
Discoloration ([4]; Solid state, Bulk): Strong
Decomposition products (%) ([4]; Solid state, Bulk (HPLC)): 18.0%
Change in XRPD ([4]; Solid state): Melted glass
resistance to decomposition under conditions of high humidity and when mixed with representative pharmaceutical compositions ([4]; summary of Table 5, compared with the hydrochloride form): superior resistance to decomposition

— patent US8486930B2, “Salts” (Novartis AG, priority 2008, dated 2013)
